Reference: patent US20220204495A1, “INHIBITING TRABID” (Valo Health, Inc., priority 2019, published 2022)

Biological target: T1, TRABID(245-697) (Homo sapiens, UniProt Q9UGI0)
T1 construct: 10 nM TRABID(245-697) and 25 nM Ub-Rh110MP (UbiQ, UbiQ-126) final concentrations
T1 sequence (Q9UGI0 245-697): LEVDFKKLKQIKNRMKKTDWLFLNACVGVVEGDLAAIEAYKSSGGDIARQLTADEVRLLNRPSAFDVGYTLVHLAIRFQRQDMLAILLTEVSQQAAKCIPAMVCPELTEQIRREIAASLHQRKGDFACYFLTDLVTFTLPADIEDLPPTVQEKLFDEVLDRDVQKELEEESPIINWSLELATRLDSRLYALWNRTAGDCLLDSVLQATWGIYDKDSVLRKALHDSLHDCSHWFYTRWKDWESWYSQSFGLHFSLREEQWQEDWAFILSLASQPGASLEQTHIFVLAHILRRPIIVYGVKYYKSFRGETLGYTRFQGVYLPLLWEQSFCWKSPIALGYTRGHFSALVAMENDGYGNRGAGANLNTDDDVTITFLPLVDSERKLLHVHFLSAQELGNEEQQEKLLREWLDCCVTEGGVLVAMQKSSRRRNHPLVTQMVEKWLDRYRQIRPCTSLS
Test: TRABID inhibition biochemical assay (Ub-Rh110MP fluorescence)
Settings: 10 nM TRABID(245-697), 25 nM Ub-Rh110MP, 30 minutes preincubation with compound, 10-point 3-fold series 26.6 μM to 1.35 nM
Method: TRABID enzymatic assays were performed in a final volume of 6 μL in buffer containing 20 mM Tris-HCl pH 8.0, (Corning 46-031-CM), and 1 mM GSH (Sigma, G4251), 0.03% BGG (Sigma, G7516), and 0.01% Triton X-100 (Sigma, 93443). Test compounds were serially diluted in DMSO (Sigma, G7516) to obtain 10-point, 3-fold series. Nanoliter quantities were pre-dispensed into 1536 assay plates (Corning, 9110BC) for the concentration response range, 26.6 μM to 1.35 nM. 3 μL of 2× enzyme was added to the assay plates, preincubated with compound for 30 minutes and then 3 μL of 2× substrate was added to initiate the reaction (10 nM TRABID(245-697) and 25 nM Ub-Rh110MP (UbiQ, UbiQ-126) final concentrations). Enzyme and substrate concentrations and incubation times were optimized for the maximal signal-to-background while maintaining linear initial velocity conditions at a fixed substrate concentration below Km.
Fluorescence signal was measured on an EnVision Plate Reader (PerkinElmer) equipped with 485 nm excitation filter and 535 nm emission filters.
Rates were calculated by: rate=((final FLU−initial FLU)/600 seconds) where final FLU=fluorescence at time 10 minutes, initial FLU=fluorescence at time 0 minutes and 600=duration of reaction in seconds.
Data were reported as percent inhibition compared with control wells based on the following equation: % inh=[…] where rate=measured rate of fluorescence generated during assay, AveLow=average rate of no enzyme control (n=32), and AveHigh=average rate of DMSO control (n=32).
IC50 values were determined by curve fitting of the standard 4 parameter logistic fitting algorithm included in the Activity Base software package (IDBS) using XE Designer equation Model 205. Data were fitted using the Levenburg Marquardt algorithm.

First: CN(C(=O)c1cnc(-c2ccccc2)s1)[C@H]1C[C@H](CNC#N)C1 (single isomer, unassigned) [Compound 20, N-methyl-2-phenyl-N-[(trans)-3-[(cyanoamino)methyl]cyclobutyl]-1,3-thiazole-5-carboxamide]
Second: N#CNC[C@H]1C[C@H](NC(=O)c2cnc(-c3ccccc3)s2)C1 [Compound 16, 2-phenyl-N-[(trans)-3-[(cyanoamino)methyl]cyclobutyl]-1,3-thiazole-5-carboxamide]
The IC50 of the first is 1.9-fold higher: 2950 nM for the first, 1580 nM for the second.

Going from `N#CN[C@H]1C[C@]2(CCN(C(=O)c3cc(-c4ccccn4)no3)C2)C1` (single isomer, unassigned) [Compound 45, {[(2r,4s)-6-[3-(pyridin-2-yl)-1,2-oxazole-5-carbonyl]-6-azaspiro[3.4]octan-2-yl]amino}formonitrile] to `Cn1cc(-c2ccc(-c3cc(C(=O)N4CCC5(CC(NC#N)C5)C4)on3)cc2)cn1` (centres unmarked) [Compound 13, [(6-[3-[4-(1-methyl-1H-pyrazol-4-yl)phenyl]-1,2-oxazole-5-carbonyl]-6-azaspiro[3.4]octan-2-yl)amino]formonitrile], the IC50 falls from 8100 nM to 1260 nM (6.4-fold).

First: N#CNC[C@@H]1CCN(C(=O)c2csc(-c3ccccc3Oc3ccccc3)n2)C1 [Compound 1, cyano([[(3S)-1-[2-(2-phenoxyphenyl)-1,3-thiazole-4-carbonyl]pyrrolidin-3-yl]methyl])amine]
Second: N#CNC[C@H]1CCN(C(=O)c2csc(-c3ccccc3Oc3ccccc3)n2)C1 [Compound 2, cyano([[(3R)-1-[2-(2-phenoxyphenyl)-1,3-thiazole-4-carbonyl]pyrrolidin-3-yl]methyl])amine]
The IC50 of the first is 3.1-fold lower: 140 nM for the first, 439 nM for the second. The first is the more potent here.

`COc1cccc(-c2ncc(NC(=O)CCCNC#N)s2)c1` [Compound 3, 4-(cyanoamino)-N-[2-(3-methoxyphenyl)-1,3-thiazol-5-yl]butanamide] and `COc1cccc(-c2ncc(NC(=O)[C@H](C)CCNC#N)s2)c1` [Compound 4, (2R)-4-(cyanoamino)-N-[2-(3-methoxyphenyl)-1,3-thiazol-5-yl]-2-methylbutanamide] are within 1.5-fold of each other in IC50: 743 nM for the first, 850 nM for the second.

`COc1cccc(-c2ncc(C(=O)NCCCNC#N)s2)c1` [Compound 5, N-[3-(cyanoamino)propyl]-2-(3-methoxyphenyl)-1,3-thiazole-5-carboxamide] and `COc1cccc(-c2ncc(NC(=O)[C@@H](C)CCNC#N)s2)c1` [Compound 6, (2S)-4-(cyanoamino)-N-[2-(3-methoxyphenyl)-1,3-thiazol-5-yl]-2-methylbutanamide] are within 1.5-fold of each other in IC50: 872 nM for the first, 951 nM for the second.

Compared with `N#CNC1C[C@@]12CCN(C(=O)c1csc(-c3ccc(Cl)cc3Cl)n1)C2` (some centres unmarked) [Compound 7], `N#CNC1CC2(CCN(C(=O)c3csc(-c4ccc(Cl)cc4Cl)n3)CC2)C1` [Compound 44] is 7.5-fold higher in IC50: 1060 nM for the first, 8000 nM for the second.

`Cn1cc(-c2ccc(-c3cc(NC(=O)CCCNC#N)on3)cc2)cn1` [Compound 8, 4-(cyanoamino)-N-[3-[4-(1-methylpyrazol-4-yl)phenyl]-1,2-oxazol-5-yl]butanamide] and `Cn1cc(-c2ccc(-c3cc(NC(=O)CCNC#N)on3)cc2)cn1` [Compound 15, 3-(cyanoamino)-N-[3-[4-(1-methylpyrazol-4-yl)phenyl]-1,2-oxazol-5-yl]propanamide] are within 1.5-fold of each other in IC50: 1060 nM for the first, 1390 nM for the second.

`N#CNCCCC(=O)Nc1cnc(-c2ccccc2Oc2ccccc2)s1` [Compound 9, 4-(cyanoamino)-N-[2-(2-phenoxyphenyl)-1,3-thiazol-5-yl]butanamide] and `COc1ccccc1-c1ncc(NC(=O)CCCNC#N)s1` [Compound 10, 4-(cyanoamino)-N-[2-(2-methoxyphenyl)-1,3-thiazol-5-yl]butanamide] are within 1.5-fold of each other in IC50: 1130 nM for the first, 1160 nM for the second.

First: N#CNC[C@H]1CCN(C(=O)c2csc(-c3ccc(Cl)cc3Cl)n2)C1 [Compound 11]
Second: N#CNC[C@@H]1CCCN(C(=O)c2csc(-c3ccc(Cl)cc3Cl)n2)C1 [Compound 32]
The IC50 of the first is 4.5-fold lower: 1160 nM for the first, 5270 nM for the second.

`COc1ccccc1-c1nc(C(=O)N2CC[C@@H](CNC#N)C2)cs1` [Compound 12, cyano([[(3S)-1-[2-(2-methoxyphenyl)-1,3-thiazole-4-carbonyl]pyrrolidin-3-yl]methyl])amine] and `COc1ccccc1-c1nc(C(=O)N2CC[C@H](CNC#N)C2)cs1` [Compound 14, cyano([[(3R)-1-[2-(2-methoxyphenyl)-1,3-thiazole-4-carbonyl]pyrrolidin-3-yl]methyl])amine] are within 1.5-fold of each other in IC50: 1250 nM for the first, 1280 nM for the second.

First: N#CNCC12CC1CN(C(=O)c1csc(-c3ccc(Cl)cc3Cl)n1)C2 (centres unmarked) [Compound 17]
Second: N#CNCC1CN(C(=O)c2csc(-c3ccc(Cl)cc3Cl)n2)C1 [Compound 29]
The IC50 of the first is 3.2-fold lower: 1600 nM for the first, 5160 nM for the second.

First: C[C@H](CNC#N)C(=O)Nc1cc(-c2ccc(-c3cnn(C)c3)cc2)no1 [Compound 18, (2R)-3-(cyanoamino)-2-methyl-N-[3-[4-(1-methylpyrazol-4-yl)phenyl]-1,2-oxazol-5-yl]propanamide]
Second: C[C@@H](CNC#N)C(=O)Nc1cc(-c2ccc(-c3cnn(C)c3)cc2)no1 [Compound 19, (2S)-3-(cyanoamino)-2-methyl-N-[3-[4-(1-methylpyrazol-4-yl)phenyl]-1,2-oxazol-5-yl]propanamide]
The IC50 of the first is 1.6-fold lower: 1660 nM for the first, 2590 nM for the second. The first is the more potent here.

Going from `COc1cccc(-c2cc(C(=O)N3CC4CC4(CNC#N)C3)on2)c1` (centres unmarked) [Compound 22] to `COc1ccc(-c2cc(C(=O)N3CC4CC4(CNC#N)C3)on2)cc1` (centres unmarked) [Compound 31], the IC50 rises from 3400 nM to 5210 nM (1.5-fold). The first is the more potent here.

Compared with `N#CNC[C@H]1CN(C(=O)c2csc(-c3ccc(Cl)cc3Cl)n2)CCO1` [Compound 24, Cyano({[(2S)-4-[2-(2,4-dichlorophenyl)-1,3-thiazole-4-carbonyl]morpholin-2-yl]methyl})amine], `N#CNC[C@H]1CCCN1C(=O)c1csc(-c2ccc(Cl)cc2Cl)n1` [Compound 39] is 1.7-fold higher in IC50: 4000 nM for the first, 6620 nM for the second.

Compared with `N#CN[C@H]1[C@@H]2CN(C(=O)c3nc(-c4ccccc4)cs3)C[C@@H]21` [Compound 25], `N#CNC[C@H]1CCN(C(=O)c2nc(-c3ccccc3)cs2)C1` [Compound 46] is 1.9-fold higher in IC50: 4410 nM for the first, 8470 nM for the second. The first is the more potent here.

`N#CN[C@H]1[C@@H]2CN(C(=O)c3csc(-c4ccc(Cl)cc4Cl)n3)C[C@@H]21` [Compound 26] and `N#CNC1C[C@@]12CCN(C(=O)c1nc(-c3ccccc3)cs1)C2` (some centres unmarked) [Compound 36] are within 1.5-fold of each other in IC50: 4530 nM for the first, 6510 nM for the second.

Compared with `COc1ccc(-c2cc(C(=O)N3CC[C@@]4(CC4NC#N)C3)on2)cc1` (some centres unmarked) [Compound 34], `COc1cccc(-c2cc(C(=O)N3CC[C@@]4(CC4NC#N)C3)on2)c1` (some centres unmarked) [Compound 38] is 11-fold lower in IC50: 5660 nM for the first, 520 nM for the second. The second is the more potent here.

`N#CN[C@H]1CC[C@@H](NC(=O)c2cccc(Oc3ccccc3)c2)C1` [Compound 40] and `CN(CCCNC#N)C(=O)c1nc(-c2ccccc2)cs1` [Compound 48] are within 1.5-fold of each other in IC50: 7290 nM for the first, 8740 nM for the second.

`COc1ccc(-c2cc(C(=O)N(C)CCCNC#N)on2)cc1` [Compound 41] and `COc1cccc(-c2ncc(NC(=O)[C@H](C)CNC#N)s2)c1` [Compound 43, (2R)-3-(cyanoamino)-N-[2-(3-methoxyphenyl)-1,3-thiazol-5-yl]-2-methylpropanamide] are within 1.5-fold of each other in IC50: 7750 nM for the first, 7880 nM for the second.
